Target: T1, PR (Homo sapiens, UniProt P06401)
T1 sequence (P06401 1-933): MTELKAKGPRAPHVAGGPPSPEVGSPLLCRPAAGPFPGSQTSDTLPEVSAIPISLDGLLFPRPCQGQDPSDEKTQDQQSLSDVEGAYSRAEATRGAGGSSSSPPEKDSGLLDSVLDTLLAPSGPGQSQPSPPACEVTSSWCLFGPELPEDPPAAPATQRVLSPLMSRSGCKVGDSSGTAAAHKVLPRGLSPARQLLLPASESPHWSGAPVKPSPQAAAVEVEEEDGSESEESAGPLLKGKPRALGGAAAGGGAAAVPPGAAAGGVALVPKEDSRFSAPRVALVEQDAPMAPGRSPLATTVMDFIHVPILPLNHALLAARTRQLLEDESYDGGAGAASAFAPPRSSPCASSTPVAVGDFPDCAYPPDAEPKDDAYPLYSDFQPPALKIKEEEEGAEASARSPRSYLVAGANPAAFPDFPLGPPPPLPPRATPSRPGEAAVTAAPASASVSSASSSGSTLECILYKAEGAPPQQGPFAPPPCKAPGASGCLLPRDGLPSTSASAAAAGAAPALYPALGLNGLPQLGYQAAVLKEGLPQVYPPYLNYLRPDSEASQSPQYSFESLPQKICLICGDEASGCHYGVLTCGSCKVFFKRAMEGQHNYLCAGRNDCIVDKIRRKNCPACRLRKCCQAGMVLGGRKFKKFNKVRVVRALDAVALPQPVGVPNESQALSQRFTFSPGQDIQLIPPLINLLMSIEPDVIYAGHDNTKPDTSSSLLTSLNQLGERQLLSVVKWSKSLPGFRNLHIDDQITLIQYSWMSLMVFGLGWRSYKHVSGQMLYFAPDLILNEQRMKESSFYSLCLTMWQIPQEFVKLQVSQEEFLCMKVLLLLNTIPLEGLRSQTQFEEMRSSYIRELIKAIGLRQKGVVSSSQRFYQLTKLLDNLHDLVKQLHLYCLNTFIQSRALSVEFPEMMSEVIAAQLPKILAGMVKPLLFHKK
Assay: PR activation (max fold activation)
Assay type: cell-based
Settings: Table 4

## CC(=O)[C@H]1CC[C@H]2[C@@H]3CCC4=CC(=O)CC[C@]4(C)[C@H]3CC[C@]12C [Progesterone, reference compound]
  PR max fold activation: 255 ± 72

Source: patent publication US7947726B2, “Non-steroidal ligands for the glucocorticoid receptor, and compositions thereof” (The Regents of the University of California, priority 2002, dated 2011)
